The values below come from patent publication US12036022B2, “Transcutaneous organ function measurement” (MediBeacon Inc., priority 2008, dated 2024).

The series can be described thus: Half-life (renal excretion) after intravenous administration to rats. Particulars: rat, in vivo. How it is done:
The chromatographically separated fractions F5 and F10 were derivatized with fluorescein isothiocyanate (FITC) to form FITC-F5 and FITC-F10. FITC-F10 was administered to rats intravenously. The interstitial fluorescence of the FITC measured at an excitation wavelength of 485-520 nm was determined. The fluorescence in the serum was measured as a control.

For sinistrin, the half-life (usually how long it takes for the measured level to halve) was 25.02 ± 1.67 min.
